Experimental data taken from article PMC10568461, “A pilot study of cerebral metabolism and serotonin 5-HT2A receptor occupancy in rats treated with the psychedelic tryptamine DMT in conjunction with the MAO inhibitor harmine” (Frontiers in Pharmacology, 2023).

Experiments:
brain glucose metabolism = experiment: [^18F]FDG-PET of cerebral glucose metabolism (experiment 1); format: in vivo, rat; conditions: for [^18F]FDG-PET SUV normalized to whole-brain uptake (SUVglob): 1 mg/kg s.c.; for [^18F]FDG-PET SUV normalized to whole-brain uptake (SUVglob) / [^18F]FDG-PET glucose normalized SUV (SUVgluc): mean (SD)
Method: The dynamic PET recordings were histogrammed into six frames of 5 minutes each, and reconstructed with attenuation, decay, and scatter correction using the OSEM3D/SP-MAP algorithm (2 x OSEM iterations and 18 x MAP iterations) with a matrix size of 128 × 128 pixels, resulting in a final target resolution of 0.8 mm/pixel. Pre-processing of PET scans was performed using PMOD v4.2 (PMOD Technologies LLC, Zurich, Switzerland). The [^18F]FDG images were averaged across the six frames and then converted into standardized uptake values (SUV), whereupon the image was cropped to the head of the animal and automatically co-registered to a standard [^18F]FDG-PET template. We used Schiffer’s atlas ([Schiffer et al., 2006]) for parcellation of bilateral brain regions within the cortico-striato-thalamo-cortical (CSTC) circuit, i.e. bilateral nucleus accumbens (NAc), medial prefrontal cortex (mPFC), orbitofrontal cortex (OFC), hippocampus, striatum, thalamus, visual cortex, cerebellum as a comparator region, and whole brain. We selected these regions from the CSTC circuit based on a conceptual model holding that the thalamus acts as a filter/gatekeeper of sensory information, broadcasting to cortical regions that subserve conscious experience ([Wang et al., 2006]; [McAlonan et al., 2008]). Perturbation of this CSTC circuit is implicated in the action of psychedelic compounds ([Geyer and Vollenweider, 2008]; [Preller et al., 2019]). We scaled individual regional SUV results to the mean blood glucose levels measured during the recording session (SUVgluc) and to the global [^18F]FDG uptake (SUVglob).

[1] = molecular target: T1, serotonin 5-HT2A receptors (Rattus norvegicus, UniProt P14842); experiment: Ex vivo occupancy at frontal cortex 5-HT2A receptors with [^18F]MH.MZ (experiment 2); format: in vivo; conditions: Experiment 2, [^18F]MH.MZ
T1 construct: from tissue; host or cells: rat frontal cortex (living rat brain, measured ex vivo after in vivo radioligand injection)
Method: Animals were lightly sedated using 2% isoflurane in pure oxygen at 20 min post DMT injection, whereupon they received a 0.2 mL intravenous injection of [^18F]MH.MZ diluted in saline to a radiochemical concentration of approximately 20 MBq/mL. Rats then returned to their home cage with withdrawal of anesthesia. After 45 min, rats were sacrificed by decapitation, and the brains dissected into cerebellum and frontal cortex samples for radioactivity measurement and chemical analysis, thus 65 min after harmine + DMT. The gamma-activity in weighed samples of cerebellum and frontal cortex regions was counted with a Packard Cobra gamma counter (GMI, Ramsey, Minnesota, US), as previously reported ([Bærentzen et al., 2019]). As with [^3H]ketanserin, the occupancy at [^18F]MH.MZ binding sites in frontal cortex was calculated from the specific binding ratio (cortex-cerebellum)/cerebellum) measured in the saline control and treatment groups.

[2] = molecular target: serotonin 5-HT2A receptors; set-up: method as in ref Lyon et al., 1988; Pierce and Peroutka, 1989; McKenna et al., 1990; Keiser et al., 2009; Ray, 2010; conditions: ref Lyon et al., 1988, Pierce and Peroutka, 1989, McKenna et al., 1990, Keiser et al., 2009, Ray, 2010, cited from earlier work
serotonin 5-HT1A = tested on: serotonin 5-HT1A; set-up: method as in ref Lyon et al., 1988; Pierce and Peroutka, 1989; McKenna et al., 1990; Keiser et al., 2009; Ray, 2010; conditions: ref Lyon et al., 1988; Pierce and Peroutka, 1989; McKenna et al., 1990; Keiser et al., 2009; Ray, 2010; cited from earlier work
[3] = Brain concentrations of harmine, DMT and metabolites by UHPLC-MS after s.c. harmine and/or DMT; conditions: for concentration at 95 min / concentration at 65 min: rat, subcutaneous
Method: Groups of (n = 6) rats received either saline, harmine (1 mg/kg), DMT (1 mg/kg), or harmine + DMT (1 mg/kg each) as subcutaneous injections, as indicated in Figure 1.
After 45 min, rats were sacrificed by decapitation, and the brains dissected into cerebellum and frontal cortex samples for radioactivity measurement and chemical analysis, thus 65 min after harmine + DMT.

[4] = molecular target: T1, serotonin 5-HT2A receptors; experiment: Ex vivo occupancy at frontal cortex 5-HT2A receptors with [^3H]ketanserin (experiment 1); format: in vivo
Method: Groups of (n = 6) rats received either saline, harmine (1 mg/kg), DMT (1 mg/kg), or harmine + DMT (1 mg/kg each) as subcutaneous injections, as indicated in Figure 1. Approximately 5 minutes later, the animals were lightly anesthetized using (2% isoflurane in pure oxygen) and received [^3H]ketanserin (300 kBq; 740 MBq/µmol) as a bolus injection in 0.2 mL saline via a tail vein. […] At the conclusion of the PET recording, rats were sacrificed while still anesthetized, thus 95 min after drug administration. Terminal samples of cerebellum (non-binding reference tissue) and frontal cortex were transferred to preweighed 7 mL liquid scintillation vials, reweighed, and added with 0.9 mL of aqueous based solubilizer (Solvable, Perkin Elmer) for dissolution during 48 h at room temperature. Next, 7 mL of liquid scintillation counting cocktail (Ultima Gold™ XR, Perkin Elmer) was added to each sample, and the content of tritium (i.e., [^3H]ketanserin, cpm/mg) was measured by liquid scintillation counting (TRI-CARB, Perkin Elmer). We calculated the occupancy by DMT at frontal cortex 5-HT2A receptors for the three treatment groups relative to the specific binding ratio ([cortex-cerebellum]/cerebellum) for the control group.

5-HT2C receptors = molecular target: 5-HT2C receptors; set-up: method as in ref Lyon et al., 1988; Pierce and Peroutka, 1989; McKenna et al., 1990; Keiser et al., 2009; Ray, 2010; conditions: ref Lyon et al., 1988; Pierce and Peroutka, 1989; McKenna et al., 1990; Keiser et al., 2009; Ray, 2010; cited from earlier work
brain 5-HT2A receptors = conditions: calculated; humans, oral DMT and harmine; ref Koeck, 2015; cited from earlier work
rats = experiment: Behavioural observations in treated rats; format: in vivo, rat; conditions: in some DMT- (and harmine-) treated rats; not systematically assessed

T1 sequence (P14842 whole entry): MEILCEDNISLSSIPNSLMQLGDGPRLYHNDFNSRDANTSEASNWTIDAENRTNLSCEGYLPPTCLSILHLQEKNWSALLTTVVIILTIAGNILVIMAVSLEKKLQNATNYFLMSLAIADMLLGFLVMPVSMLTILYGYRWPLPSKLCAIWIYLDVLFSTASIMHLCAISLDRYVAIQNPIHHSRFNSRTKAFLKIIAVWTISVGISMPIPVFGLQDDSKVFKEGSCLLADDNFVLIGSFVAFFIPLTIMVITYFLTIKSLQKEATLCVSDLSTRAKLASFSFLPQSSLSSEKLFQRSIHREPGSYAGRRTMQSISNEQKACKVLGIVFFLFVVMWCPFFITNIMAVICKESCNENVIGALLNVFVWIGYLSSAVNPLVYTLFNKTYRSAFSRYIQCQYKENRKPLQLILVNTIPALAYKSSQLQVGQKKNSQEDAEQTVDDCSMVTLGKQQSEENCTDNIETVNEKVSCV

With CN(C)CCc1c[nH]c2ccccc12 [DMT, N,N-dimethyltryptamine] the “Qualitative effect on brain [^18F]FDG uptake (SUVglob maps)” value (brain glucose metabolism; 1 mg/kg, separately or in combination) was “no conspicuous effects”, the “Trend towards relative increase in SUVglob in hippocampus and thalamus” value (brain glucose metabolism; Experiment 1, 1 mg/kg) was about 5% and the “[^18F]FDG-PET SUV normalized to whole-brain uptake (SUVglob)” value (“[^18F]FDG-PET SUV normalized” below) (brain glucose metabolism; NAc) was 6.2 (0.36) SUV. The “[^18F]FDG-PET glucose normalized SUV (SUVgluc)” value (brain glucose metabolism; NAc, 1 mg/kg) was 6.48 (0.93) SUV, the “[^18F]FDG-PET SUV normalized” value (brain glucose metabolism; OFC) was 6.52 (0.15) SUV and the “[^18F]FDG-PET glucose normalized SUV (SUVgluc)” value (brain glucose metabolism; OFC, 1 mg/kg) was 6.82 (0.84) SUV. The “[^18F]FDG-PET SUV normalized” value (brain glucose metabolism; cerebellum) was 4.56 (0.23) SUV, the “[^18F]FDG-PET glucose normalized SUV (SUVgluc)” value (brain glucose metabolism; cerebellum, 1 mg/kg) was 4.76 (0.64) SUV and the “[^18F]FDG-PET SUV normalized” value (brain glucose metabolism; hippocampus) was 4.95 (0.21) SUV. The “[^18F]FDG-PET glucose normalized SUV (SUVgluc)” value (brain glucose metabolism; hippocampus, 1 mg/kg) was 5.2 (0.85) SUV, the “[^18F]FDG-PET SUV normalized” value (brain glucose metabolism; mPFC) was 6.95 (0.34) SUV and the “[^18F]FDG-PET glucose normalized SUV (SUVgluc)” value (brain glucose metabolism; mPFC, 1 mg/kg) was 7.3 (1.24) SUV. The “[^18F]FDG-PET SUV normalized” value (brain glucose metabolism; striatum) was 6.91 (0.24) SUV, the “[^18F]FDG-PET glucose normalized SUV (SUVgluc)” value (brain glucose metabolism; striatum, 1 mg/kg) was 7.24 (1.07) SUV and the “[^18F]FDG-PET SUV normalized” value (brain glucose metabolism; thalamus) was 6.33 (0.1) SUV. The “[^18F]FDG-PET glucose normalized SUV (SUVgluc)” value (brain glucose metabolism; thalamus, 1 mg/kg) was 6.62 (0.86) SUV, the “[^18F]FDG-PET SUV normalized” value (brain glucose metabolism; visual cortex) was 6.27 (0.13) SUV and the “[^18F]FDG-PET glucose normalized SUV (SUVgluc)” value (brain glucose metabolism; visual cortex, 1 mg/kg) was 6.57 (0.99) SUV. For the same molecule, the “[^18F]FDG-PET glucose normalized SUV (SUVgluc)” value (brain glucose metabolism; whole brain, 1 mg/kg) was 5.8 (0.81) SUV, the “Occupancy at 5-HT2A sites ex vivo” value [1] was “unable to detect any such occupancy” and the IC50 ([2]; read-out: IC50 at 5-HT2A receptors in vitro) was 75 to 360 nM. The Ki ([2]; read-out: Ki at 5-HT2A receptors in vitro) was 127 to 1200 nM, the IC50 (serotonin 5-HT1A) was 170 nM and the Ki (serotonin 5-HT1A) was 183 nM. The “Percentage of total molar concentration of DMT and metabolites” value (shortened to “Percentage”) ([3]; Exp 1, group DMT, average of regions) was 2.3%, the “Percentage” value ([3]; Exp 1, group DMT, cerebellum) was 2.0% and the “Percentage” value ([3]; Exp 1, group DMT, front cort) was 2.6%. The “Percentage” value ([3]; Exp 1, group Har + DMT, average of regions) was 33.9%, the “Percentage” value ([3]; Exp 1, group Har + DMT, cerebellum) was 32.9% and the “Percentage” value ([3]; Exp 1, group Har + DMT, front cort) was 34.7%. For the same molecule, the “Percentage” value ([3]; Exp 2, group Har + DMT, average of regions) was 73.3%, the “Percentage” value ([3]; Exp 2, group Har + DMT, cerebellum) was 71.1% and the “Percentage” value ([3]; Exp 2, group Har + DMT, front cort) was 74.9%. For the same molecule, the “DMT detectable in brain” value ([3]; Experiment 1, after DMT alone (1 mg/kg)) was “Only traces”, the Brain concentration ([3]; Experiment 1, cerebellum, group Har + DMT (1 mg/kg each s.c.), 95 min, mean (SD)) was 105.1 (89.2) ng/g and the Brain concentration ([3]; Experiment 1, frontal cortex, group Har + DMT (1 mg/kg each s.c.), 95 min, mean (SD)) was 149.5 (123.2) ng/g. The “DMT/3-IAA ratio in brain” value ([3]; Experiment 1, harmine + DMT 1 mg/kg each) was “approximately 0.53”, the Brain concentration ([3]; Experiment 2, cerebellum, group Har + DMT (3 mg/kg each s.c.), 65 min, mean (SD)) was 1472.7 (369.2) ng/g and the Brain concentration ([3]; Experiment 2, frontal cortex, group Har + DMT (3 mg/kg each s.c.), 65 min, mean (SD)) was 2122.7 (434.2) ng/g. For the same molecule, the “DMT/3-IAA ratio in brain” value ([3]; Experiment 2, harmine + DMT 3 mg/kg each) was about 2.83, the “Brain concentration after 3 mg/kg harmine + DMT relative to the lower harmine + DMT dose” value ([3]; Experiment 2 versus experiment 1) was 14 fold and the “Higher DMT concentration in frontal cortex compared to cerebellum” value ([3]; Experiments 1 and 2, harmine + DMT) was 50%. It also gave a concentration at 95 min ([3]; brain (average of frontal cortex and cerebellum), 1 mg/kg, Molar concentration, Exp 1, group DMT, average of regions) of 61.5 nM, a concentration at 95 min ([3]; brain (average of frontal cortex and cerebellum), Molar concentration, Exp 1, group Har + DMT, average of regions) of 676 nM and a concentration at 65 min ([3]; brain (average of frontal cortex and cerebellum), Molar concentration, Exp 2, group Har + DMT, average of regions) of 9550 nM. For the same molecule, the concentration at 95 min ([3]; cerebellum, 1 mg/kg, Brain concentration, Experiment 1, cerebellum, group DMT (1 mg/kg s.c.), 95 min, mean (SD)) was 8.7 ng/g, the concentration at 95 min ([3]; cerebellum, 1 mg/kg, Molar concentration, Exp 1, group DMT, cerebellum) was 46 nM and the concentration at 95 min ([3]; cerebellum, Brain concentration, Experiment 1, cerebellum, after harmine + DMT (1 mg/kg each)) was 600 nM. The concentration at 95 min ([3]; cerebellum, Brain concentration, Experiment 1, cerebellum, group Har (harmine 1 mg/kg s.c.), 95 min after drug, mean (SD)) was 4.1 ng/g, the concentration at 95 min ([3]; cerebellum, Brain concentration, Experiment 1, cerebellum, group Har + DMT (1 mg/kg each s.c.), 95 min, mean (SD)) was 105 ng/g and the concentration at 65 min ([3]; cerebellum, Brain concentration, Experiment 2, cerebellum, after harmine + DMT (3 mg/kg each)) was 7800 nM. The concentration at 65 min ([3]; cerebellum, Brain concentration, Experiment 2, cerebellum, group Har + DMT (3 mg/kg each s.c.), 65 min, mean (SD)) was 1470 ng/g, the concentration at 95 min ([3]; cerebellum, Molar concentration, Exp 1, group Har + DMT, cerebellum) was 558 nM and the concentration at 65 min ([3]; cerebellum, Molar concentration, Exp 2, group Har + DMT, cerebellum) was 7820 nM. It also gave a concentration at 95 min ([3]; frontal cortex, 1 mg/kg, Brain concentration, Experiment 1, frontal cortex, group DMT (1 mg/kg s.c.), 95 min, mean (SD)) of 14.5 ng/g, a concentration at 95 min ([3]; frontal cortex, 1 mg/kg, Molar concentration, Exp 1, group DMT, front cort) of 77.1 nM and a concentration at 95 min ([3]; frontal cortex, Brain concentration, Experiment 1, frontal cortex, after harmine + DMT (1 mg/kg each), 95 min) of 800 nM. For the same molecule, the concentration at 95 min ([3]; frontal cortex, Brain concentration, Experiment 1, frontal cortex, group Har (harmine 1 mg/kg s.c.), 95 min, mean (SD)) was 4.8 ng/g, the concentration at 95 min ([3]; frontal cortex, Brain concentration, Experiment 1, frontal cortex, group Har + DMT (1 mg/kg each s.c.), 95 min, mean (SD)) was 150 ng/g and the concentration at 65 min ([3]; frontal cortex, Brain concentration, Experiment 2, frontal cortex, after harmine + DMT (3 mg/kg each), 65 min) was at most 11300 nM. The concentration at 65 min ([3]; frontal cortex, Brain concentration, Experiment 2, frontal cortex, group Har + DMT (3 mg/kg each s.c.), 65 min, mean (SD)) was 2120 ng/g, the concentration at 95 min ([3]; frontal cortex, Molar concentration, Exp 1, group Har + DMT, front cort) was 794 nM and the concentration at 65 min ([3]; frontal cortex, Molar concentration, Exp 2, group Har + DMT, front cort) was 11300 nM. The “[^3H]ketanserin specific binding ratio in frontal cortex” value ([4]; Experiment 1, 1 mg/kg each s.c., 95 min after administration, (cortex-cerebellum)/cerebellum) was 2.15 ± 0.39, the “Occupancy at 5-HT2A sites ex vivo” value ([4]; Experiment 1, [^3H]ketanserin) was “unable to detect any such occupancy” and the IC50 (5-HT2C receptors) was 360 nM. For the same molecule, the Ki (5-HT2C receptors) was 360 to 2630 nM, the “Time of peak DMT occupancy post-administration” value (brain 5-HT2A receptors) was 0.5 to 1.5 h and the Head twitch response (rats) was “observed the characteristic dose-dependent head twitch response”.
